Source: patent US9586905B2, “Benzoazepine derivative and medical use thereof” (SANWA KAGAKU KENKYUSHO CO., LTD., priority 2012, dated 2017)

Target: T1, human V2 receptor (Homo sapiens, UniProt P30518)
T1 construct: A DNA fragment containing a human V2 receptor code region; expressed in transfected cells
Assay: cAMP production test in V2 receptor expression cell
Type: cell-based
Settings: for EC50: human V2 receptor expression cell, 30 minutes at room temperature, HTRF cAMP kit; for Emax: maximum reaction by 8-AVP assumed to be 100%
Protocol: Pharmacological Test (1) Preparation of Human V2 Receptor Expression Cell
A DNA fragment containing a human V2 receptor code region was inserted into an expression vector of a vertebrate cell. The expression vector was genetically introduced into an animal cell to have the human V2 receptor express in the surface of the cell. Since the expression vector could express a neo gene which functions as a G418 resistance marker, it was cultured in a G418-containing medium, thereby selectively obtaining a human V2 receptor stable expression cell.
(2) cAMP Production Test in V2 Receptor Expression Cell
The human V2 receptor expression cell, which was prepared in the above described method, was recovered and resuspended into an incubation buffer (F-12 medium, 20 mM HEPES), and 5 μl of the cell was then divided into a 384-well plate with a density of 15,000 cells/well. 5 μl of a compound solution or an 8-AVP ((Arg^8)-vasopressin) solution, which was diluted with an assay buffer (F-12 medium, 20 mM HEPES, 1 mM IBMX), (total 10 μl/well) was added to each well (final concentration: 15,000 cells/well, 500 μM IBMX, 1% dimethyl sulfoxide). After incubation at room temperature for 30 minutes, a cAMP production amount was measured using a commercially available HTRF cAMP kit (Cisbio Inc.) according to the described protocol. Excel Fit was used in order to find EC50 and Emax values of the test compound.

T1 sequence (P30518 whole entry, the tested form may be a part): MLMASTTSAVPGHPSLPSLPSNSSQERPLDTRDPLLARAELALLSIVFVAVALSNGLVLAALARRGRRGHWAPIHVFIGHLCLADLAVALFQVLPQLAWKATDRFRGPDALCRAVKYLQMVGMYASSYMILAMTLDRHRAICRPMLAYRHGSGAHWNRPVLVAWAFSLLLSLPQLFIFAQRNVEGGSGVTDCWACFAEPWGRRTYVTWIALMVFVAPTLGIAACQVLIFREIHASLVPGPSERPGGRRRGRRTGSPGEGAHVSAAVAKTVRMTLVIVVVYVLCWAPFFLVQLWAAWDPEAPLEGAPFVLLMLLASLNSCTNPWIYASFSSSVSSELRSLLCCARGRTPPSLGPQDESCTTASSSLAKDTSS

| Compound | EC50 [nM] | Emax [%] |
| --- | --- | --- |
| COC(=O)C1(C)CCN(C(=O)c2ccc(N3CCCC3)cc2Cl)c2ccccc2C1 (racemic) [Example 31] | 7.9 | 102 |
| CCCOc1ccc(C(=O)N2CCC(C)(C(=O)OC)Cc3ccccc32)c(Cl)c1 (racemic) [Example 32] | 9.1 | 104 |
| COC(=O)C1(C)CCN(C(=O)c2ccc(-c3ncco3)cc2Cl)c2ccccc2C1 (racemic) [Example 33] | 20 | 96 |
| COC(=O)C1(C)CCN(C(=O)c2ccc(-n3cccn3)cc2Cl)c2ccccc2C1 (racemic) [Example 34] | 9.8 | 98 |
| COC(=O)C1Cc2ccccc2N(C(=O)c2ccc(N3CCCC3)cc2Cl)CC1C (racemic) [Example 42] | 0.8 | 103 |
| COC(=O)C1(F)Cc2ccccc2N(C(=O)c2ccc(N3CCCC3)cc2Cl)CC1C (racemic) [Example 43] | 0.1 | 102 |
| CC1(C(=O)O)CCN(C(=O)c2ccc(N3CCCC3)cc2Cl)c2ccccc2C1 (racemic) [Example 49, 1-[2-chloro-4-(pyrrolidine-1-yl)benzoyl)-4-methyl-2,3,4,5-tetrahydro-1H-benzo[b]azepine-4-carboxylic acid] | 0.5 | 102 |
| CCCOc1ccc(C(=O)N2CCC(C)(C(=O)O)Cc3ccccc32)c(Cl)c1 (racemic) [Example 50, 1-(2-chloro-4-propoxybenzoyl)-4-methyl-2,3,4,5-tetrahydro-1H-benzo[b]azepine-4-carboxylic acid] | 0.9 | 100 |
| CC1(C(=O)O)CCN(C(=O)c2ccc(-c3ncco3)cc2Cl)c2ccccc2C1 (racemic) [Example 51, 1-[2-chloro-4-(oxazol-2-yl)benzoyl]-4-methyl-2,3,4,5-tetrahydro-1H-benzo[b]azepine-4-carboxylic acid] | 6 | 73 |
| CC1(C(=O)O)CCN(C(=O)c2ccc(-n3cccn3)cc2Cl)c2ccccc2C1 (racemic) [Example 52, 1-[2-chloro-4-(1H-pyrazol-1-yl)benzoyl]-4-methyl-2,3,4,5-tetrahydro-1H-benzo[b]azepine-4-carboxylic acid] | 3.9 | 85 |
| Cc1ccn(-c2ccc(C(=O)N3C[C@@H](C)C(C)(C(=O)O)Cc4ccccc43)c(C)c2)n1 (mixture of isomers) [Example 55, (3S)-3,4-dimethyl-1-[2-methyl-4-(3-methyl-1H-pyrazol-1-yl)benzoyl]-2,3,4,5-tetrahydro-1H-benzo[b]azepine-4-carboxylic acid] | 0.2 | 101 |
| C[C@@H]1CN(C(=O)c2ccc(N3CCCC3)cc2Cl)c2ccccc2CC1C(=O)O (mixture of isomers) [Example 56, (3S)-1-[2-chloro-4-(pyrrolidine-1-yl)benzoyl]-3-methyl-2,3,4,5-tetrahydro-1H-benzo[b]azepine-4-carboxylic acid] | 0.1 | 102 |
| C[C@@H]1CN(C(=O)c2ccc(N3CCCC3)cc2Cl)c2ccccc2CC1(F)C(=O)O (mixture of isomers) [Example 57, (3R)-1-[2-chloro-4-(pyrrolidine-1-yl)benzoyl]-4-fluoro-3-methyl-2,3,4,5-tetrahydro-1H-benzo[b]azepine-4-carboxylic acid] | 0.2 | 102 |
| Cc1cc(N2CCC(C)C2)ccc1C(=O)N1CCC(C)(C(=O)NCC(N)=O)Cc2ccccc21 (racemic) [Example 69] | 0.53 | 101 |
| CC(C)C(NC(=O)C1(C)CCN(C(=O)c2ccc(OCCCF)cc2Cl)c2ccccc2C1)C(N)=O (racemic) [Example 73] | 1.9 | 100 |
| Cc1nnc(NC(=O)C2(C)CCN(C(=O)c3ccc(N4CCCC4)cc3Cl)c3ccccc3C2)o1 (racemic) [Example 79] | 0.9 | 100 |
| CCNC(=O)CNC(=O)C1(C)CCN(C(=O)c2ccc(N3CCCC3)cc2Cl)c2ccccc2C1 (racemic) [Example 80] | 2.8 | 101 |
| CCN(CC)C(=O)CNC(=O)C1(C)CCN(C(=O)c2ccc(N3CCCC3)cc2Cl)c2ccccc2C1 (racemic) [Example 81] | 6.6 | 100 |
| CC1(C(=O)NCc2nnco2)CCN(C(=O)c2ccc(N3CCCC3)cc2Cl)c2ccccc2C1 (racemic) [Example 82] | 1.1 | 101 |

| Compound | EC50 [nM] | Emax [%] |
| --- | --- | --- |
| CCCOc1ccc(C(=O)N2CCC(C)(C(=O)NC(C)CO)Cc3ccccc32)c(Cl)c1 (racemic) [Example 83] | 3.4 | 100 |
| CCCOc1ccc(C(=O)N2CCC(C)(C(=O)NCC(N)=O)Cc3ccccc32)c(Cl)c1 (racemic) [Example 84] | 2.5 | 100 |
| CC(CO)NC(=O)C1(C)CCN(C(=O)c2ccc(-c3ncco3)cc2Cl)c2ccccc2C1 (racemic) [Example 85] | 15 | 94 |
| CC1(C(=O)NCC(N)=O)CCN(C(=O)c2ccc(-c3ncco3)cc2Cl)c2ccccc2C1 (racemic) [Example 86] | 17 | 88 |
| CC(CO)NC(=O)C1(C)CCN(C(=O)c2ccc(-n3cccn3)cc2Cl)c2ccccc2C1 (racemic) [Example 87] | 9.5 | 97 |
| CC1(C(=O)NCC(N)=O)CCN(C(=O)c2ccc(-n3cccn3)cc2Cl)c2ccccc2C1 (racemic) [Example 88] | 8.1 | 93 |
| Cc1cc(N2CCC(C)C2)ccc1C(=O)N1CCC(F)(C(N)=O)Cc2ccccc21 (racemic) [Example 94] | 0.41 | 101 |
| Cc1cc(N2CCC(C)C2)ccc1C(=O)N1CCC(F)(C(=O)NCC(N)=O)Cc2ccccc21 (racemic) [Example 95] | 0.99 | 102 |
| Cc1ccn(-c2ccc(C(=O)N3CC(C)C(C)(C(=O)NCC(N)=O)Cc4ccccc43)c(C)c2)n1 (racemic) [Example 97] | 0.56 | 102 |
| CC(CO)NC(=O)C1Cc2ccccc2N(C(=O)c2ccc(N3CCCC3)cc2Cl)CC1C (racemic) [Example 98] | 1 | 101 |
| CC1CN(C(=O)c2ccc(N3CCCC3)cc2Cl)c2ccccc2CC1C(=O)NCC(N)=O (racemic) [Example 99] | 0.4 | 102 |
| CC(CO)NC(=O)C1(F)Cc2ccccc2N(C(=O)c2ccc(N3CCCC3)cc2Cl)CC1C (racemic) [Example 100] | 3 | 100 |
| CC1CN(C(=O)c2ccc(N3CCCC3)cc2Cl)c2ccccc2CC1(F)C(=O)NCC(N)=O (racemic) [Example 101] | 1.1 | 102 |
| COC(=O)C1(C)CCN(C(=O)c2ccc(-n3ccc(C)n3)cc2C(F)(F)F)c2ccccc2C1 (single isomer, unassigned) [Example 35] | 1.4 | 102 |
| COC(=O)C1(F)CCN(C(=O)c2ccc(N3CCCC3)cc2C)c2ccccc2C1 (single isomer, unassigned) [Example 38] | 0.06 | 101 |
| Cc1cc(N2CCCC2)ccc1C(=O)N1CCC(C)(C(=O)O)Cc2ccccc21 (single isomer, unassigned) [Example 45, 4-methyl-1-[2-methyl-4-(pyrrolidine-1-yl)benzoyl]-2,3,4,5-tetrahydro-1H-benzo[b]azepine-4-carboxylic acid] | 0.34 | 102 |
| Cc1cc(N2CCCC2)ccc1C(=O)N1CCC(F)(C(=O)O)Cc2ccccc21 (single isomer, unassigned) [Example 54, 4-fluoro-1-[2-methyl-4-(pyrrolidine-1-yl)benzoyl]-2,3,4,5-tetrahydro-1H-benzo[b]azepine-4-carboxylic acid] | 0.28 | 102 |
| Cc1cc(N2CCCC2)ccc1C(=O)N1CCC(C)(C(=O)NC(C)C(N)=O)Cc2ccccc21 (single isomer, unassigned) [Example 68] | 0.74 | 102 |
| CC(NC(=O)C1(C)CCN(C(=O)c2ccc(OCC(F)(F)F)cc2Cl)c2ccccc2C1)C(N)=O (single isomer, unassigned) [Example 76] | 0.99 | 102 |
